Test results as given in patent US9856279B2 (AGIOS PHARMACEUTICALS, INC, priority 2011, dated 2018).

How the values were obtained:
IDH1 R132H = IDH1 R132H (Homo sapiens, UniProt O75874, R132H); assay: Assay for IDH1 R132H inhibitors (NADPH/aKG, resazurin detection); type: biochemical; conditions: enzyme assay of Example 12; read-out: IDH1R132H IC50
How it was run: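 Read-out is resorufin fluorescence (Ex544/Em590) 5 min after adding a 30 μM resazurin detection mix. Before that, mutant enzyme (0.2 μg/ml in its mix) ran 50 min at room temperature with compound, 8 uM NADPH and 2 mM aKG (mix levels) in Tris pH 7.5 with NaCl, MgCl2, BSA.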

HT1080 cells = assay: Cellular assay for IDH1m inhibitors: inhibition of 2-HG production (LC-MS, 48 hours) in HT1080 cells; type: cell-based; conditions: Homo sapiens, HT-1080; inhibition of 2-HG production, HT1080 cells; read-out: HT1080 IC50
Description: Cells (e.g., HT1080 or U87MG) and are grown in T125 flasks in DMEM containing 10% FBS, 1× penicillin/streptomycin and 500 ug/mL G418. They are harvested by trypsin and seeded into 96 well white bottom plates at a density of 5000 cell/well in 100 ul/well in DMEM with 10% FBS. No cells are plates in columns 1 and 12. Cells are incubated overnight at 37° C. in 5% CO2. The next day compounds are made up at 2× concentration and 100 ul are added to each cell well. The final concentration of DMSO is 0.2% and the DMSO control wells are plated in row G. The plates are then placed in the incubator for 48 hours. At 48 hours, 100 μl of media is removed from each well and analyzed by LC-MS for 2-HG concentrations. The cell plate is placed back in the incubator for another 24 hours. At 72 hours post compound addition, 10 mL/plate of Promega Cell Titer Glo reagent is thawed and mixed. The cell plate is removed from the incubator and allowed to equilibrate to room temperature. Then 100 ul of reagent is added to each well of media. The cell plate is then placed on an orbital shaker for 10 minutes and then allowed to sit at room temperature for 20 minutes. The plate is then read for luminescence with an integration time of 500 ms.
The IC50 for inhibition of 2-HG production (concentration of test compound to reduce 2HG production by 50% compared to control) in these two cell lines for various compounds of formula I is set forth in Table 4 above.

Chain of IDH1 R132H (O75874 whole entry R132H): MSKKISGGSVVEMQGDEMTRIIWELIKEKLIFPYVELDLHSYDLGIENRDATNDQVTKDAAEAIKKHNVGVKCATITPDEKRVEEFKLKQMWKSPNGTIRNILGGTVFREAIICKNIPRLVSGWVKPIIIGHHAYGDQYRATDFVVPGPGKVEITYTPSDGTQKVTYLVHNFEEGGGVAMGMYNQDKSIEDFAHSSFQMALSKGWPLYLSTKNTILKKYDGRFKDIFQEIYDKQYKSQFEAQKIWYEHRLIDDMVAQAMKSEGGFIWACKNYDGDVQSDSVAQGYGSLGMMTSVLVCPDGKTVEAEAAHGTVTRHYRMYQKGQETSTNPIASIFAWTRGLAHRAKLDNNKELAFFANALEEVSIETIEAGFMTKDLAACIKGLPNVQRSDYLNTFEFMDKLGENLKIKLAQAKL

IC50 (IDH1 R132H)	IC50 (HT1080 cells)	Structure (SMILES)
< 500 nM	< 500 nM	C=Cc1ccc2c(-c3cc(C#N)c(N4CCN(C(=O)CCOC)[C@H](C5CC5)C4)nc3C3CC3)cccc2n1 [Compound 570, (R)-6-cyclopropyl-2-(3-cyclopropyl-4-(3-methoxypropanoyl)piperazin-1-yl)-5-(2-vinylquinolin-5-yl)nicotinonitrile]
< 500 nM	< 500 nM	C=Cc1cc(-c2cc(C#N)c(N3CCN(C(=O)CCO)[C@H](C4CC4)C3)nc2C2CC2)c2ccccc2n1 [Compound 571, (R)-6-cyclopropyl-2-(3-cyclopropyl-4-(3-hydroxypropanoyl)piperazin-1-yl)-5-(2-vinylquinolin-4-yl)nicotinonitrile]
< 500 nM	< 500 nM	C=Cc1cc(-c2cc(C#N)c(N3CCN(C(=O)CCO)C(C)C3)nc2C2CC2)ccn1 (centres unmarked) [Compound 572]
< 500 nM	< 500 nM	C=Cc1cc(-c2cc(C#N)c(N3CCN(C(=O)CCOC)[C@H](C4CC4)C3)nc2C2CC2)c2ccccc2n1 [Compound 574, (R)-6-cyclopropyl-2-(3-cyclopropyl-4-(3-methoxypropanoyl)piperazin-1-yl)-5-(2-vinylquinolin-4-yl)nicotinonitrile]
< 500 nM	< 500 nM	C=CC(=O)N1CCC=C(c2cc(C#N)c(N3CCN(C(=O)C4CC4)[C@H](C)C3)nc2C2CC2)C1 [Compound 575, (R)-5-(1-acryloyl-1,2,5,6-tetrahydropyridin-3-yl)-2-(4-(cyclopropanecarbonyl)-3-methylpiperazin-1-yl)-6-cyclopropylnicotinonitrile]
500 to 1000 nM	< 500 nM	C=CC(=O)N1CCCC(c2cc(C#N)c(N3CCN(C(=O)C4CC4)[C@H](C)C3)nc2C2CC2)C1 (stereo partly drawn) [Compound 576, 5-(1-acryloylpiperidin-3-yl)-2-((R)-4-(cyclopropanecarbonyl)-3-methylpiperazin-1-yl)-6-cyclopropylnicotinonitrile]
< 500 nM	< 500 nM	C=Cc1ccc(Nc2cc(C#N)c(N3CCN(C(=O)CCO)[C@H](C)C3)nc2C2CC2)cn1 [Compound 577, (R)-6-cyclopropyl-2-(4-(3-hydroxypropanoyl)-3-methylpiperazin-1-yl)-5-((6-vinylpyridin-3-yl)amino)nicotinonitrile]
< 500 nM	< 500 nM	C=Cc1cc(-c2cc(C#N)c(N3CCN(C(=O)C4CC4)[C@@H](C4CC4)C3)nc2C2CC2)ncn1 [Compound 578, (S)-2-(4-(cyclopropanecarbonyl)-3-cyclopropylpiperazin-1-yl)-6-cyclopropyl-5-(6-vinylpyrimidin-4-yl)nicotinonitrile]
< 500 nM	1000 to 10000 nM	C[C@@H]1CN(c2nc(C3CC3)c(Nc3ccc(C#N)nc3)cc2C#N)CCN1C(=O)CCO [Compound 582, (R)-5-((5-cyano-2-cyclopropyl-6-(4-(3-hydroxypropanoyl)-3-methylpiperazin-1-yl)pyridin-3-yl)amino)picolinonitrile]
< 500 nM	< 500 nM	Cc1cc2c(-c3cc(C#N)c(N4CCN(C(=O)CCO)[C@H](C)C4)nc3C3CC3)cccc2cn1 [Compound 588, (R)-6-cyclopropyl-2-(4-(3-hydroxypropanoyl)-3-methylpiperazin-1-yl)-5-(3-methylisoquinolin-5-yl)nicotinonitrile]
< 500 nM	< 500 nM	C#CC(=O)N1CCC=C(c2cc(C#N)c(N3CCN(C(=O)C4CC4)[C@H](C)C3)nc2C2CC2)C1 [Compound 594, (R)-2-(4-(cyclopropanecarbonyl)-3-methylpiperazin-1-yl)-6-cyclopropyl-5-(1-propioloyl-1,2,5,6-tetrahydropyridin-3-yl)nicotinonitrile]
< 500 nM	< 500 nM	C=Cc1ccnc(-c2cc(C#N)c(N3CCN(C(=O)CCOC)[C@H](C)C3)nc2C2CC2)c1 [Compound 596, (R)-2′-cyclopropyl-6′-(4-(3-methoxypropanoyl)-3-methylpiperazin-1-yl)-4-vinyl-2,3′-bipyridine-5′-carbonitrile]
< 500 nM	500 to 1000 nM	C=C(C)c1cc(-c2cc(C#N)c(N3CCN(C(=O)CCOC)[C@H](C)C3)nc2C2CC2)ncn1 [Compound 598, (R)-6-cyclopropyl-2-(4-(3-methoxypropanoyl)-3-methylpiperazin-1-yl)-5-(6-(prop-1-en-2-yl)pyrimidin-4-yl)nicotinonitrile]
500 to 1000 nM	500 to 1000 nM	C=CC(=O)N1CCOC(c2cc(C#N)c(N3CCN(C(=O)C4CC4)[C@H](C)C3)nc2C2CC2)C1 (stereo partly drawn) [Compound 600, 5-(4-acryloylmorpholin-2-yl)-2-((R)-4-(cyclopropanecarbonyl)-3-methylpiperazin-1-yl)-6-cyclopropylnicotinonitrile]
< 500 nM	< 500 nM	C=C(F)c1cc(-c2cc(C#N)c(N3CCN(C(=O)CCOC)[C@H](C)C3)nc2C2CC2)ncn1 [Compound 602, (R)-6-cyclopropyl-5-(6-(1-fluorovinyl)pyrimidin-4-yl)-2-(4-(3-methoxypropanoyl)-3-methylpiperazin-1-yl)nicotinonitrile]
< 500 nM	< 500 nM	C=Cc1cnc2c(/C=C/c3cnc4c(-c5cc(C#N)c(N6CCN(C(=O)CCOC)[C@H](C)C6)nc5C5CC5)cccc4n3)cccc2n1 [Compound 604, (R,E)-6-cyclopropyl-2-(4-(3-methoxypropanoyl)-3-methylpiperazin-1-yl)-5-(2-(2-(2-vinylquinoxalin-5-yl)vinyl)quinoxalin-5-yl)nicotinonitrile]
< 500 nM	< 500 nM	C=Cc1cc(-c2cc(C#N)c(N3CCN(C(=O)CCC(OC)OC)[C@H](C)C3)nc2C2CC2)ccn1 [Compound 606, (R)-2-cyclopropyl-6-(4-(4,4-dimethoxybutanoyl)-3-methylpiperazin-1-yl)-2′-vinyl-[3,4′-bipyridine]-5-carbonitrile]
< 500 nM	< 500 nM	C=Cc1cc(-c2cc(C#N)c(N3CCN(C(=O)CCC=O)[C@H](C)C3)nc2C2CC2)ccn1 [Compound 607, (R)-2-cyclopropyl-6-(3-methyl-4-(4-oxobutanoyl)piperazin-1-yl)-2′-vinyl-[3,4′-bipyridine]-5-carbonitrile]
< 500 nM	< 500 nM	C=Cc1ncccc1-c1cc(C#N)c(N2CCN(C(=O)CCOC)[C@H](C)C2)nc1C1CC1 [Compound 619, (R)-2-cyclopropyl-6-(4-(3-methoxypropanoyl)-3-methylpiperazin-1-yl)-2′-vinyl-3,3′-bipyridine-5-carbonitrile]
< 500 nM	< 500 nM	C=Cc1ccc(-c2cc(C#N)c(N3CCN(C(=O)CCOC)[C@H](C)C3)nc2C2CC2)cn1 [Compound 620, (R)-2-cyclopropyl-6-(4-(3-methoxypropanoyl)-3-methylpiperazin-1-yl)-6′-vinyl-3,3′-bipyridine-5-carbonitrile]
500 to 1000 nM	1000 to 10000 nM	C=Cc1cc(-c2cc(C#N)c(N3CCN(C(=O)CCOC)[C@H](C)C3)nc2C2CC2)cc(OC)n1 [Compound 622, (R)-2-cyclopropyl-2′-methoxy-6-(4-(3-methoxypropanoyl)-3-methylpiperazin-1-yl)-6′-vinyl-[3,4′-bipyridine]-5-carbonitrile]
< 500 nM	< 500 nM	C=Cc1cc(-c2cc(C#N)c(N3CCN(C(=O)CCOC)[C@H](C)C3)nc2C2CC2)cc(C=C)n1 [Compound 624, (R)-2-cyclopropyl-6-(4-(3-methoxypropanoyl)-3-methylpiperazin-1-yl)-2′,6′-divinyl-[3,4′-bipyridine]-5-carbonitrile]
< 500 nM	< 500 nM	C=C(CO)c1cc(-c2cc(C#N)c(N3CCN(C(=O)CCOC)[C@H](C)C3)nc2C2CC2)ccn1 [Compound 653, (R)-2-cyclopropyl-2′-(3-hydroxyprop-1-en-2-yl)-6-(4-(3-methoxypropanoyl)-3-methylpiperazin-1-yl)-[3,4′-bipyridine]-5-carbonitrile]
< 500 nM	< 500 nM	C=Cc1cc(-c2cc(C#N)c(N3CCN(C(=O)CCO)[C@H](C4CC4)C3)nc2C2CC2)c2cccnc2n1 [Compound 655, (R)-6-cyclopropyl-2-(3-cyclopropyl-4-(3-hydroxypropanoyl)piperazin-1-yl)-5-(2-vinyl-1,8-naphthyridin-4-yl)nicotinonitrile]
< 500 nM	< 500 nM	C=Cc1cc(N(C(C)=O)c2cc(C#N)c(N3CCN(C(=O)CCOC)[C@H](C)C3)nc2C2CC2)ccn1 [Compound 662, (R)—N-(5-cyano-2-cyclopropyl-6-(4-(3-methoxypropanoyl)-3-methylpiperazin-1-yl)pyridin-3-yl)-N-(2-vinylpyridin-4-yl)acetamide]
